# Reference: patent US8524661B2, “Inhibiting serum response factor (SRF) to improve glycemic control” (Joslin Diabetes Center, Inc., priority 2008, dated 2013)
# Entries after “also recorded” stand apart in the source; their conditions may differ.
# Experiments:
# [1] = system: SRF transcriptional activity; experiment: SRF transcriptional activity, 4x CArG (SRE) promoter luciferase reporter in C2C12 cells; assay type: cell-based
# Text: To determine whether SRF transcriptional activity is also changed in insulin resistance, 4× tandem repeat of SRF binding element (SRE) CArG boxes (Kuwahara et al., Mol. Cell Biol. 25:3173-3181 (2005)) promoters linked to a luciferase gene were used as a reporter.
# p42/44 ERK = experiment: ERK phosphorylation in C2C12 myotubes (phosphoimmunoblot); assay type: cell-based; conditions: overnight 1 μM CCG-1423, FIG. 11C
# Method: (§1) In parallel, CCG-1423 enhanced insulin action in C2C12 myotubes. Overnight treatment with 1 μM CCG-1423 increased insulin-stimulated Akt phosphorylation, both in the presence and absence of dexamethasone (41% for both, p=0.01 and p=0.007, respectively), while having no effect on p42/44 ERK phosphorylation (FIG. 11C).
# [2] = system: mice with diet-induced obesity; experiment: CCG-1423 treatment of mice with diet-induced obesity (HFD); assay type: in vivo
# Method: To examine the therapeutic potential of this SRF inhibitor in vivo, we assessed responses to CCG-1423 treatment in mice with diet-induced obesity. […] The HFD mice were administered CCG-1423 (0.15 mg/kg body weight intraperitoneally) for two weeks.
# In parallel, the high insulin levels associated with insulin resistance were normalized by CCG-1423 treatment (FIG. 13C).
# GLUT1 = GLUT1 expression in myotubes; assay type: cell-based; conditions: CCG-1423 treatment, p<0.004
# Text: (§2) Since CCG-1423 increased insulin signalling in myotubes, we hypothesized that CCG-1423 might also enhance glucose uptake. In DMSO (vehicle)-treated myotubes, insulin stimulated a 2-fold increase in deoxyglucose uptake in a dose-dependent manner, consistent with prior reports and the low insulin responsiveness in cultured myotubes (FIG. 11E). […] In parallel, expression of the dominant glucose transporters GLUT4 and GLUT1 was increased by CCG-1423 treatment by 4.1 and 2.5 fold, respectively (p<0.004).
# L6 myotubes = experiment: 2-deoxyglucose uptake in L6 myotubes; assay type: cell-based; conditions: CCG-1423 1 uM, 16 hours, FIG. 11E
# Method: FIG. 11E is a line graph showing that both basal and insulin-stimulated 2-deoxyglucose uptake are increased by >4-fold in L6 myotubes following CCG-1423, with enhanced insulin sensitivity (1 uM, 16 hours). * indicates p<0.05, **p<0.01, ***p<0.001.
# GLUT4 = GLUT4 expression in myotubes; assay type: cell-based; conditions: CCG-1423 treatment, p<0.004
# Text: as §2
# Akt = Akt phosphorylation in myotubes (phosphoimmunoblot); assay type: cell-based; conditions: for increase of insulin-stimulated Akt phosphorylation: C2C12 myotubes
# Method: (§3) siRNA was used to specifically reduce MKL1 expression, achieving an effective knockdown of about 60%. This increased insulin-stimulated phosphorylation of Akt (Ser473), expressed relative to total Akt protein content, by 2-fold (p<0.01). […] Thus, siRNA-mediated reduction in MKL1 expression enhances both basal and insulin-stimulated glucose uptake in cultured myotubes.
# The next experiments were performed to determine whether SRF transcriptional activity, rather than expression of SRF itself, is important for maintaining appropriate insulin sensitivity. A new compound, CCG-1423, is available for specifically inhibiting SRF transcriptional activity (Evelyn et al., Mol. Cancer. Ther. 6:2249-2260 (2007)). […] CCG-1423 was then evaluated to test the possibility that reducing SRF transcriptional activity improves insulin sensitivity. Indeed, this is the case. A dramatic improvement in insulin sensitivity resulted from treatment with CCG-1423 in dexamethasone-induced insulin resistant myotubes, as CCG-1423 increased insulin-simulated Akt phosphorylation (a marker of insulin sensitivity) (FIG. 11A).
# as §1
# C2C12 myotubes = experiment: Deoxyglucose uptake in cultured (C2C12) myotubes; assay type: cell-based; conditions: FIG. 11E
# Text: as §3, §2
# human myotubes = experiment: Basal glucose uptake in human myotubes from control and diabetic subjects; assay type: cell-based
# Method: The effects of CCG-1423 on human myotubes, and whether these effects would differ in myotubes derived from controls (n=2) vs. diabetic subjects (n=6), were also evaluated. […] The differential responsiveness in subjects with DM supports the concept that SRF pathways are more robustly activated in humans with insulin resistance and DM, and therefore potentially more sensitive to SRF inhibition.
# [3] = system: SRF target gene expression; experiment: SRF target gene expression in CCG-1423 treated cells; assay type: cell-based; conditions: basal or insulin stimulated state
# Text: (§4) The molecular mechanism of the ability of CCG-1423 to reverse insulin resistance was further explored. The insulin—insulin receptor (1R)—insulin receptor substrate (IRS-1) pathway is the dominant up-stream signalling activator of Akt.
# IRS-1 = experiment: IR / IRS-1 tyrosine phosphorylation and p85 PI 3-kinase association in myotubes; assay type: cell-based
# Text: FIG. 11D is a phosphoimmunoblot showing that CCG-1423 increases basal and insulin-stimulated tyrosine phosphorylation of IRS-1 and its association with p85-PI 3-kinase, in both control and DEX-treated myotubes. * indicates p<0.05, **p<0.01, ***p<0.001.
# as §4, §1
# MKL1 = MKL1 cellular localization in C2C12 myoblasts; assay type: cell-based
# SRF = experiment: Low density DNA binding arrays, SRF DNA binding activity; assay type: cell-based; conditions: C2C12 myotubes
# Method: To explore the above possibility, DNA binding activity of SRF and it co-factor ELK1 to the target gene promoter was first evaluated. To this end, electrophoretic mobility shift assays (EMSA) were performed. […] In support to this idea, in low density DNA binding arrays, SRF DNA binding activity was dramatically (5-10 fold, respectively) increased in primary myotubes from insulin resistant human and free fatty acid (FFA)-treated C2C12 myotubes compared to control.
# [4] = system: MKL1-dependent and -independent SRF pathways; experiment: Gene set enrichment of SRF pathways in C2C12 myotubes; assay type: cell-based; conditions: compared with control BSA treated cells
# STARS = STARS expression in C2C12 myotubes after actin disruption; assay type: cell-based; conditions: p<0.03, not shown
# Text: Additional pathway analysis using MAPPFinder confirmed that serum response factor (SRF)-dependent and actin-related cytoskeleton gene expression is increased in diabetes, and more importantly, also in insulin resistance. The top-ranking single gene differentially expressed in skeletal muscle in the fasting state is the Actin-binding Rho activating protein (ABRA), or STARS, increased by 2.5 fold in individuals with type 2 diabetes (p<0.01). This gene regulates intracellular actin dynamics and subcellular localization of MKL1/2, thus contributing to SRF-dependent gene transcription. Since disruption of actin by latrunculin B increases STARS expression in C2C12 cells by 50% in C2C12 myotubes (p<0.03, not shown), it was hypothesize that increased STARS expression in DM may reflect disruption of actin dynamics and also contribute to the pattern of increased SRF-related gene expression. Similar patterns of SRF-dependent expression are also observed in adipose tissue from insulin resistant subjects and in insulin resistant muscle.
compound,measurement,setting,value
CC(ONC(=O)c1cc(C(F)(F)F)cc(C(F)(F)F)c1)C(=O)Nc1ccc(Cl)cc1 (stereo not shown) [CCG-1423],SRF-mediated transcriptional activity (4x CArG / SRE promoter activity),"[1]; C2C12 myoblasts, serum (FBS 2 hours) or dexamethasone stimulation, CCG-1423 1 uM, 16 hours pre-treatment, FIG. 11B",efficiently blocked
same,"SRF transcriptional activity induced by serum, dexamethasone, and insulin","[1]; C2C12 myotubes, FIG. 10",specifically block; also recorded: inhibits
same,p42/44 ERK phosphorylation,p42/44 ERK,no effect; also recorded: minimal change
same,serum insulin levels during glucose tolerance test,"[2]; 15 minutes after glucose injection, HFD+CCG vs vehicle-treated HFD, FIG. 13C",normalized; also recorded: significantly reduced
same,expression of SRF or ELK1,"[2]; HFD mice, 0.15 mg/kg intraperitoneally, two weeks",did not alter
same,"expression of SRF targets in skeletal muscle, e.g., ZYX and PDLIM7","[2]; HFD mice, 0.15 mg/kg intraperitoneally, two weeks, vs vehicle-injected controls",significantly decreased
same,food intake,"[2]; HFD mice, 0.15 mg/kg intraperitoneally, two weeks, vs vehicle-treated HFD mice",No significant change
same,body weight,"[2]; HFD mice, 0.15 mg/kg intraperitoneally, two weeks, vs vehicle-treated HFD mice, FIG. 12, 0.15 mg/kg",No significant change; also recorded: not altered
same,glucose tolerance test area under the curve (AUC),"[2]; HFD+CCG vs vehicle-treated HFD animals, FIG. 13B, p<0.006",significantly reduced
same,adiponectin levels,[2]; HFD-fed mice,No differences
same,circulating fatty acid levels,[2]; HFD-fed mice,No differences
same,insulin tolerance testing,[2]; HFD-fed mice,No differences
same,in vivo glucose tolerance (intra peritoneal glucose tolerance test),"[2]; HFD-fed mice vs HFD-fed vehicle-treated controls, FIG. 13A",significantly improved; also recorded: improves
same,GLUT1 expression increase,GLUT1,2.5 fold
same,basal and insulin-stimulated 2-deoxyglucose uptake increase,L6 myotubes,> 4 fold
same,GLUT4 expression increase,GLUT4,4.1 fold
same,increase of insulin-stimulated Akt phosphorylation,"Akt; overnight 1 μM CCG-1423, absence of dexamethasone, p=0.007",41%
same,increase of insulin-stimulated Akt phosphorylation,"Akt; overnight 1 μM CCG-1423, presence of dexamethasone, p=0.01",41%
same,insulin-stimulated Akt phosphorylation (marker of insulin sensitivity),"Akt; dexamethasone-induced insulin resistant myotubes, FIG. 11A",increased; also recorded: improves
same,insulin-stimulated Akt phosphorylation,"Akt; insulin 100 nM, 10 minutes, FIG. 11C",increases
same,insulin-stimulated deoxyglucose uptake response,"C2C12 myotubes; myotubes incubated with CCG-1423, 1 uM insulin",11.5 fold
same,glucose uptake increase in the basal state,C2C12 myotubes; myotubes incubated with CCG-1423,4 fold
same,basal increase in glucose uptake (mean),human myotubes; myotubes from control subjects (n=2),1.2 fold
same,basal increase in glucose uptake (mean),human myotubes; myotubes from diabetic subjects (n=6),3.2 fold
same,SRF target gene expression,[3],does not induces
same,p85 expression,IRS-1; C2C12 myotubes,without altering
same,basal and insulin-stimulated tyrosine phosphorylation of IRS-1 and its association with p85 PI 3-kinase,"IRS-1; control and DEX-treated myotubes, FIG. 11D",increases
same,phosphorylation of IR and IRS-1 protein,IRS-1; with insulin stimulation,massive phosphorylation
same,MKL1 localization,MKL1; compound alone,almost exclusively localized to the cytoplasm
same,"MKL1 localization, effect on dexamethasone-induced nuclear localization",MKL1; with dexamethasone,reversed dexamethasone-induced MKL1 nuclear localization to partial cytoplasmic localization
CCCCCCCCCCCCCCCC(=O)O [FFA],SRF transcriptional activity at basal level,"[1]; C2C12 myotubes, experimentally induced insulin resistance, FIG. 4",dramatically increased
same,increase of SRF DNA binding activity compared to control,SRF,5-10 fold
same,enrichment of MKL1-dependent and -independent SRF pathways,[4],significant enrichment
C/C1=C/C(=O)O[C@@H]2C[C@@H](CC[C@H](C)/C=C\CC1)O[C@@](O)([C@@H]1CSC(=O)N1)C2 [latrunculin B],increase of STARS expression,STARS,50%
